Measured values as given in the NIST ThermoML archive (doi:10.1016/j.jct.2008.02.001).

Test: molar heat capacity at constant pressure
Details: 101.33 kPa, Crystal, PPMS-Quantum Design

[O-][Si]([O-])([O-])[O-].[Th+4] [thorium silicate]
Details | molar heat capacity at constant pressure [J/K/mol]
1.885 K | 0.001439
1.946 K | 0.001553
2.013 K | 0.001656
2.084 K | 0.0018
2.158 K | 0.001932
2.234 K | 0.002074
2.319 K | 0.002253
2.399 K | 0.002416
2.484 K | 0.002584
2.572 K | 0.002792
2.66 K | 0.003006
2.749 K | 0.003244
2.842 K | 0.0035
2.936 K | 0.003794
3.038 K | 0.004121
3.136 K | 0.004482
3.243 K | 0.004896
3.353 K | 0.005336
3.463 K | 0.005793
3.573 K | 0.006259
3.69 K | 0.00688
3.812 K | 0.00739
3.935 K | 0.007954
4.063 K | 0.008647
4.198 K | 0.009528
4.338 K | 0.01046
4.483 K | 0.01148
4.637 K | 0.0127
4.798 K | 0.01391
4.968 K | 0.01533
5 K | 0.01646
5.151 K | 0.01714
5.343 K | 0.01921
5.54 K | 0.02152
5.744 K | 0.02438
5.956 K | 0.02725
6.175 K | 0.03065
6.401 K | 0.03406
6.631 K | 0.03824
6.869 K | 0.04281
7.113 K | 0.04768
7.362 K | 0.05303
7.62 K | 0.05923
7.885 K | 0.06632
8.158 K | 0.07389
8.441 K | 0.08256
8.734 K | 0.09321
9.036 K | 0.1048
9.352 K | 0.1182
9.685 K | 0.1338
10 K | 0.1498
10.02 K | 0.1509
10.37 K | 0.1707
10.73 K | 0.1934
11.1 K | 0.2188
11.48 K | 0.2483
11.88 K | 0.2819
12.29 K | 0.32
12.72 K | 0.3633
13.16 K | 0.4129
13.61 K | 0.4682
14.09 K | 0.5314
14.58 K | 0.603
15.08 K | 0.6838
15.61 K | 0.7739
16.14 K | 0.8747
16.71 K | 0.9903
17.29 K | 1.117
17.89 K | 1.255
18.52 K | 1.411
19.15 K | 1.576
19.81 K | 1.761
20 K | 1.81
20.51 K | 1.965
21.22 K | 2.185
21.97 K | 2.428
22.7 K | 2.683
23.5 K | 2.973
24.27 K | 3.257
25.16 K | 3.599
25.98 K | 3.941
26.91 K | 4.308
27.88 K | 4.727
28.82 K | 5.152
29.81 K | 5.6
30 K | 5.69
30.85 K | 6.085
31.93 K | 6.6
33.08 K | 7.146
34.36 K | 7.779
35.54 K | 8.309
36.76 K | 8.996
38.05 K | 9.736
39.38 K | 10.24
40 K | 10.68
40.71 K | 10.97
42.03 K | 11.71
43.53 K | 12.5
45.03 K | 13.28
46.58 K | 14.12
48.19 K | 15
49.84 K | 15.88
50 K | 16.04
51.54 K | 16.84
53.32 K | 17.83
55.17 K | 18.86
57.08 K | 19.9
59.06 K | 20.99
61.1 K | 22.12
63.21 K | 23.21
65.39 K | 24.39
67.65 K | 25.63
69.99 K | 26.91
72.42 K | 28.19
74.93 K | 29.51
77.52 K | 30.84
80.21 K | 32.24
82.99 K | 33.67
85.77 K | 35.08
88.74 K | 36.63
91.81 K | 38.21
94.98 K | 39.83
98.28 K | 41.48
100 K | 42.28
101.68 K | 43.16
105.2 K | 44.86
108.84 K | 46.57
112.61 K | 48.32
116.51 K | 50.09
120.55 K | 51.87
124.73 K | 53.61
129.04 K | 55.37
133.51 K | 57.22
138.13 K | 59.1
142.91 K | 60.93
147.86 K | 62.82
150 K | 63.64
152.97 K | 64.6
158.25 K | 66.54
163.72 K | 68.4
169.39 K | 70.23
175.25 K | 72.2
181.32 K | 74.15
187.59 K | 75.84
194.08 K | 77.96
200 K | 79.46
200.79 K | 79.76
207.73 K | 81.56
214.93 K | 83.34
222.36 K | 85.17
230.05 K | 86.81
238.01 K | 88.63
246.25 K | 90.44
250 K | 91.07
254.74 K | 92.01
263.54 K | 93.59
272.64 K | 95.02
282.08 K | 96.5
291.84 K | 98.01
298.15 K | 98.68
300 K | 98.88
302.26 K | 99.17
